# What was measured:
# Bacillus cereus spores = experiment: Assay to quantify spore kills, wet-prepared Bc spores (section 2); format: cell-based, B. cereus RSVF1, ATCC 4342; settings: FIG. 5
# [1] = system: Bacillus atrophaeus subspecies globigii spores; experiment: Assay to quantify spore kills, dry-prepared Bg spores (section 2); format: cell-based; settings: 0.5 M, 15 minutes at 25° C., FIG. 4
# [2] = system: B. atrophaeus subspecies globigii spores; format: cell-based, Bacillus atrophaeus subspecies globigii; settings: 0.5 M in water
# Experimental: Dry-prepared spores of non-pathogenic B. atrophaeus subspecies globigii (B. globigii or Bg) were prepared at the Army's Dugway Proving Ground to mimic a bio-weapon, and they are used for bio-weapons studies, including the following experiments. The assay for decontamination experiments was performed with 3-4 replicates and many experiments were reproduced numerous times. The assay included the steps of (1) suspending Bg spores in the appropriate solvent (water or ethanol) at a concentration of 2 mg spores/ml (approximately 2×10^8 spores/ml) with starting volume of over 1 ml of spores at 2 mg/ml; (2) removing 3 or 4 spore aliquots of 50 ul per aliquot with each aliquot serially diluted in 1x PBS and plated on Luria-Bertani (LB) or Tryptic Soy (TSA) agar plates (this is a control step that gave the spore titer or colony-forming units (CFUs) at Time=0 minutes (T0)); (3) placing the appropriate decontamination solution (2x concentration) aliquoted into each of 3 or 4 eppendorf tubes with 200 ul per tube and then 200 ul of spores were added and mixed to give a final concentration of 1x decontamination solution and 1 mg spores/ml; (4) the spores in decontamination solution were then mixed and incubated for specific time periods and temperatures. A typical incubation was in a room temperature (25° C.) water bath for 30 (or 60) minutes (no agitation was performed during the incubation period in order to mimic real world situations); (5) aliquots of spores from the 3 or 4 replicates were removed after 30 (or 60) minutes with the aliquots serially diluted in 1x PBS and plated on LB or TSA agar plates which gave a CFU at Time=30 minutes (T30) (the titer of live spores after the decontamination test); (6) after removing the aliquots at the 30-minute time point, some test samples were then immediately incubated in a 70° C. water bath for another 30 minutes, the samples were then serially diluted and plated on to LB agar plates to determine the titer after the 70° C. incubation.
# [3] = 0.5 M in 50%, 75% and 90% ethanol, 15 minutes at 25° C.
# [4] = 60 minutes at 25° C., ten out of the thirteen experiments
# [5] = additional 30 minutes at 70° C., pH-neutralized to pH 7-8, all 11 experiments
structure (smiles),measurement,setting,value
"O.O.[Ca+2].[Cl-].[Cl-] [Ca^+2, CaCl2-2H2O]",effect on Bc spores,"Bacillus cereus spores; 0.5 M in water, 25%, 50%, 75% or 90% ethanol, 15 minutes at 25° C.",no affect
same,effect on Bg spores,"[1]; regardless of the solvent (water, 25-90% ethanol)",no affect
"[Cl][Cu][Cl] [Cu^+2, copper chloride]",activity against Bc spores,Bacillus cereus spores; [3],strong activity
same,activity against Bg spores,"[1]; in 50%, 75% and 90% ethanol",strongest activity
same,log spore kill,[2]; [4],> 1 log
same,spore kills,[2]; [4],greater than 92%
same,kill of spores,[2]; [5],100%
same,logs of kill,[2]; [5],> 7 logs
"O.O.O.O.O.O.[Cl-].[Cl-].[Cl-].[Fe+3] [Fe^+3, FeCl3·6H2O]",CFU reduction (logs),Bacillus cereus spores; [3],greater than three logs
same,CFU reduction (percent),Bacillus cereus spores; [3],> 99.9%
same,CFU reduced relative to the control,"Bacillus cereus spores; 0.5 M in water, within 15 minutes",less than half a log
same,CFU reduction,[1]; in water and at any ethanol concentration,greater than three logs
"[Cl-].[Cl-].[Zn+2] [Zn^+2, ZnCl2]",activity against Bc spores,"Bacillus cereus spores; 0.5 M in 50% and 75% ethanol, 15 minutes at 25° C.",slight activity
same,CFU reduction,[1]; in 50% ethanol,greater than two logs

# Source: patent US20070020140A1, “Decontamination of biological microbes using metal cations suspended in ethanol” (priority 2005, published 2007)
